Legend:
[1] = in vitro; conditions: for Papp at 5 h, 100 μMole / MEAN LAG TIME: female, New Zealand Albino, rabbit; for MEAN LAG TIME: 100 μMole
Description: The procedure used is summarized below.
Female New Zealand Albino rabbits were sacrificed by first anaesthetizing with ketamine (30 mg/Kg) and xylazine (6 mg/Kg) followed by an injection of an overdose of […]* (sodium pentobarbital, 1 ml of a 26% solution) into the marginal ear vein. The intact eyes, along with the lids and conjunctival sacs were then enucleated and immediately stored in about 70 ml of fresh BSS PLUS® irrigation solution saturated with O2/CO2 (95:5).
To accomplish this, the exposed cornea of the enucleated eye was carefully placed on a corneal holder, which maintained the cornea curvature and held the eye in place. Various tissues of the eye were dissected leaving the cornea, a small ring of scleral tissue, and the palpebral conjunctiva. The conjunctival and scleral tissue served as a gasket and permitted the cornea to be suspended within the corneal ring in the center of the perfusion chamber. The chamber was jacketed to maintain the cornea and the perfusion solution at 35° C. The corneal holder and chamber were made from acrylic plastic at the University of Iowa, Iowa City, Iowa.
The mounted cornea was clamped between the two cylindrical compartments of the perfusion chamber and 7.5 mls of BSS PLUS® irrigating solution was placed in the receiving (endothelial) side of the chamber with stirring and bubbling of the O2/CO2 (95:5) mixture. Then, 7 mls of the fluoroquinolone dissolved in BSS PLUS® irrigating solution at a concentration of 100 μMole (this is approximately 4 mg/100 mL) was added to the donor (epithelial) side of the chamber also with stirring and bubbling of the O2/CO2 (95:5) mixture. The difference in volume ensured that the cornea would not buckle during the course of the experiment.
Samples (150 μL) were withdrawn from the receiving chamber every 30 minutes over a five hour period, and an equal volume of irrigating solution was immediately added to the receiving chamber to maintain a constant volume. The concentration of fluoroquinolones in the samples was determined using reverse-phase HPLC. […] Mixtures of acetonitrile and 31 mM phosphoric acid/sodium phosphate buffer at pH=3 were the mobile phase. The mobile phase (acetonitrile:phosphate buffer v/v) and UV detection wavelengths for each of the fluoroquinolones was determined beforehand. […] After each permeability experiment, the cornea was trimmed of excess scleral tissue and conjunctiva, weighed and dried overnight over phosphorus pentoxide in a vacuum desiccator. It was then reweighed in order to determine the hydration level. […] If the cornea is damaged in any way the hydration level rises. Data from corneas with hydration levels over 83% are discarded.
The rate of drug accumulation in the receiving (endothelial) chamber, and the apparent Permeability Coefficients (Papp) of the fluoroquinolones were then calculated as follows: […]

[2] = system: Staphylococcus haemolyticus; assay: In vitro antimicrobial activity, agar dilution MIC; type: cell-based
Description: (§1) The activity of the compounds of the present invention was evaluated using an in vitro assay. Microorganisms were prepared from growth on agar media, in broth culture, or from thawed cryopreserved cultures. Fungal cultures were filtered to remove mycelial elements.
(§2) Using Mueller Hinton II Broth, 0.9% saline or other appropriate media, a suspension of each culture was prepared and adjusted to a turbidity equivalent to that of a 0.5 McFarland Standard. (Cultures adjusted to the 0.5 McFarland Standard generally contain approximately 1.0×10^8 CFU/mL). The adjusted suspension for each culture was diluted 1:10 in the appropriate media so that the inoculum concentration approximates 1.0×10^7 CFU/mL.
(§3) The antimicrobial agent to be tested was weighed and diluted with a volume of sterile distilled water calculated to yield the necessary starting concentration. Serial 1:2 dilutions of the antimicrobial agent in sterile distilled water were prepared (approximately 10-12 test concentrations comprise a reasonable experimental range). A known amount of each antimicrobial dilution was combined with an aliquot of agar medium calculated to yield the desired final antimicrobial test concentration and dispensed onto plates.
(§4) The amount of antimicrobial agent to be weighed was determined using the following equation: […]
(§5) Antimicrobial stock solutions were prepared at concentrations 5-10 times the highest concentration to be tested (routinely 1024 μg/mL). […] The stock solution was diluted to appropriate concentration using sterile water to form a working solution. The working solution was diluted two-fold, in sterile water, until the desired concentration is obtained.
(§6) Mueller Hinton II agar was prepared as described by the manufacturer. Mueller Hinton II agar may be supplemented with 5% defibrinated sheep blood for testing streptococci. Agar was added to the serially diluted antimicrobial solution in each container. The solutions were mixed thoroughly and poured into petri dishes (about 25 mL/plate). The pH of the agar at 25° C. should be between 7.2 and 7.4.
(§7) At least one inocula control plate was inoculated (agar medium without antimicrobial agent) from each seed plate before inoculating test plates. Test plates were inoculated starting at the lowest concentration and proceeding to the highest concentration. After all test plates were inoculated, an additional control plate (agar medium without antimicrobial agent) was inoculated. The plates were incubated in a non-CO2 incubator (or CO2 incubator depending on growth requirements); 18-24 hours at 32-35° C. was sufficient for most organisms.
(§8) All inoculation points on the agar surface were examined for the presence of growth as compared to the inoculum control plates. The results were summarized and use to determine Minimal Inhibitory Concentrations (MICs): The MIC is the lowest concentration of the antimicrobial agent which prevents visible growth of the organism (negative score).

[3] = system: MSSA; assay: In vitro antimicrobial activity, agar dilution MIC; type: cell-based; conditions: test organism 6, MSSA
Description: as §1, §2, §3, §4, §5, §6, §7, §8

[4] = system: Escherichia coli; assay: In vitro antimicrobial activity, agar dilution MIC; type: cell-based
Description: as §1, §2, §3, §4, §5, §6, §7, §8

[5] = system: Enterococcus faecalis; assay: In vitro antimicrobial activity, agar dilution MIC; type: cell-based
Description: as §1, §2, §3, §4, §5, §6, §7, §8

[6] = system: MRSA; assay: In vitro antimicrobial activity, agar dilution MIC; type: cell-based
Description: as §1, §2, §3, §4, §5, §6, §7, §8

[7] = system: Serratia marcescens; assay: In vitro antimicrobial activity, agar dilution MIC; type: cell-based
Description: as §1, §2, §3, §4, §5, §6, §7, §8

[8] = system: Acinetobacter junii; assay: In vitro antimicrobial activity, agar dilution MIC; type: cell-based
Description: as §1, §2, §3, §4, §5, §6, §7, §8

[9] = system: Corynebacterium amycolatum; assay: In vitro antimicrobial activity, agar dilution MIC; type: cell-based
Description: as §1, §2, §3, §4, §5, §6, §7, §8

[10] = system: Staphylococcus epidermidis; assay: In vitro antimicrobial activity, agar dilution MIC; type: cell-based
Description: as §1, §2, §3, §4, §5, §6, §7, §8

[11] = system: Streptococcus pneumoniae; assay: In vitro antimicrobial activity, agar dilution MIC; type: cell-based
Description: as §1, §2, §3, §4, §5, §6, §7, §8

[12] = system: Stenotrophomonas maltophilia; assay: In vitro antimicrobial activity, agar dilution MIC; type: cell-based
Description: as §1, §2, §3, §4, §5, §6, §7, §8

[13] = test organism 12, Staphylococcus haemolyticus
[14] = test organism 13, Staphylococcus haemolyticus
[15] = test organism 14, Staphylococcus haemolyticus
[16] = test organism 32, Escherichia coli
[17] = test organism 33, Escherichia coli
[18] = test organism 34, Escherichia coli
[19] = test organism 15, Enterococcus faecalis
[20] = test organism 16, Enterococcus faecalis
[21] = test organism 17, Enterococcus faecalis
[22] = test organism 18, Enterococcus faecalis
[23] = test organism 39, Serratia marcescens
[24] = test organism 40, Serratia marcescens
[25] = test organism 27, Acinetobacter junii
[26] = test organism 28, Acinetobacter junii
[27] = test organism 29, Acinetobacter junii
[28] = test organism 24, Corynebacterium amycolatum
[29] = test organism 25, Corynebacterium amycolatum
[30] = test organism 7, Staphylococcus epidermidis
[31] = test organism 8, Staphylococcus epidermidis
[32] = test organism 19, Streptococcus pneumoniae
[33] = test organism 20, Streptococcus pneumoniae
[34] = test organism 41, Stenotrophomonas maltophilia
[35] = test organism 42, Stenotrophomonas maltophilia

Compound	Papp at 5 h, 100 μMole [1] [×10⁻⁶ cm/s]	MEAN LAG TIME [1] [min]	Minimal Inhibitory Concentration (MIC) [2, 13]	Minimal Inhibitory Concentration (MIC) [2, 14]	Minimal Inhibitory Concentration (MIC) [2, 15]	Minimal Inhibitory Concentration (MIC) [3]	Minimal Inhibitory Concentration (MIC) [4, 16]	Minimal Inhibitory Concentration (MIC) [4, 17]	Minimal Inhibitory Concentration (MIC) [4, 18]	Minimal Inhibitory Concentration (MIC) [5, 19]	Minimal Inhibitory Concentration (MIC) [5, 20]	Minimal Inhibitory Concentration (MIC) [5, 21]	Minimal Inhibitory Concentration (MIC) [5, 22]	Minimal Inhibitory Concentration (MIC) ([6]; test organism 3, MRSA)	Minimal Inhibitory Concentration (MIC) ([6]; test organism 4, MRSA)	Minimal Inhibitory Concentration (MIC) ([6]; test organism 5, MRSA)	Minimal Inhibitory Concentration (MIC) [7, 23]	Minimal Inhibitory Concentration (MIC) [7, 24]	Minimal Inhibitory Concentration (MIC) [8, 25]	Minimal Inhibitory Concentration (MIC) [8, 26]	other results
Nc1c(F)c(N2CC3CCCNC3C2)c(F)c2c1c(=O)c(C(=O)O)cn2C1CC1 (racemic) [Compound 3 (racemic)]	16.6	38	0.125	1	>4	>4	0.06	≦0.25	>4	0.125	1	>4	>2	>2	2	>2	0.5	1	≦0.25	0.125	Minimal Inhibitory Concentration (MIC) [8, 27]: >4; Minimal Inhibitory Concentration (MIC) [9, 28]: 0.06; Minimal Inhibitory Concentration (MIC) [9, 29]: >4; Minimal Inhibitory Concentration (MIC) [10, 30]: 0.06; Minimal Inhibitory Concentration (MIC) [10, 31]: >2; Minimal Inhibitory Concentration (MIC) [11, 32]: ≦0.03; Minimal Inhibitory Concentration (MIC) [11, 33]: 0.5; Minimal Inhibitory Concentration (MIC) [12, 34]: 4; Minimal Inhibitory Concentration (MIC) [12, 35]: ≦0.03
CN1CCCC2CN(c3cc4c(cc3F)c(=O)c(C(=O)O)cn4C3CC3)CC21 (stereo not shown) [Compound 2]	20.5	27	1	>4	>4	>4	0.25	≦0.25	>4	1	≦0.25	>4	>2	>2	>4	>2	4	4	≦0.25	0.25	permeability and lag characteristics among the compounds studied (in words) [1]: best permeability and lag characteristics of the compounds studied; Minimal Inhibitory Concentration (MIC) [8, 27]: >4; Minimal Inhibitory Concentration (MIC) [9, 28]: ≦0.03; Minimal Inhibitory Concentration (MIC) [9, 29]: >4; Minimal Inhibitory Concentration (MIC) [10, 30]: 2; Minimal Inhibitory Concentration (MIC) [10, 31]: >2; Minimal Inhibitory Concentration (MIC) [11, 32]: 0.5; Minimal Inhibitory Concentration (MIC) [11, 33]: ≦0.25; Minimal Inhibitory Concentration (MIC) [12, 34]: >4; Minimal Inhibitory Concentration (MIC) [12, 35]: 2
Nc1c(F)c(N2CC3CCCNC3C2)c(F)c2c1c(=O)c(C(=O)O)cn2C1CC1 [Compound 3 (S,S)]	13.6	45	0.125	1	>4	4	0.06	≦0.25	>4	0.125	0.5	>4	>2	1	2	>2	0.5	1	≦0.25	0.06	Minimal Inhibitory Concentration (MIC) [8, 27]: >4; Minimal Inhibitory Concentration (MIC) [9, 28]: 0.5; Minimal Inhibitory Concentration (MIC) [9, 29]: >4; Minimal Inhibitory Concentration (MIC) [10, 30]: 0.5; Minimal Inhibitory Concentration (MIC) [10, 31]: 0.5; Minimal Inhibitory Concentration (MIC) [11, 32]: 0.125; Minimal Inhibitory Concentration (MIC) [11, 33]: ≦0.25; Minimal Inhibitory Concentration (MIC) [12, 34]: 2; Minimal Inhibitory Concentration (MIC) [12, 35]: 0.125
CN1CCCC2CN(c3c(F)cc4c(=O)c(C(=O)O)cn(C5CC5)c4c3F)CC21 (stereo not shown) [Compound 1]	31.1	12	0.25	2	>4	>4	0.06	≦0.25	>4	0.5	>2	>4	>2	>2	4	>2	1	1	≦0.25	≦0.03	permeability and lag characteristics among the compounds studied (in words) [1]: best permeability and lag characteristics of the compounds studied; Minimal Inhibitory Concentration (MIC) [8, 27]: 2; Minimal Inhibitory Concentration (MIC) [9, 28]: 0.06; Minimal Inhibitory Concentration (MIC) [9, 29]: >4; Minimal Inhibitory Concentration (MIC) [10, 30]: 0.25; Minimal Inhibitory Concentration (MIC) [10, 31]: >2; Minimal Inhibitory Concentration (MIC) [11, 32]: 0.125; Minimal Inhibitory Concentration (MIC) [11, 33]: 0.5; Minimal Inhibitory Concentration (MIC) [12, 34]: >4; Minimal Inhibitory Concentration (MIC) [12, 35]: 0.25
